{
  "source": "the supplement of paper PMC7108870",
  "key": {"[1]": {"system": "HEK293sieSTAT3(Y640F)", "assay": "drug sensitivity score (DSS), cytotoxicity CellTox Green (DSS (dimensionless)); higher = more cytotoxic; extreme values may be limits of the assay", "conditions": "72 h; STAT3 variant: Y640F (constitutively active)", "procedure,_shortened": "(§1)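 Compounds were acoustically pre-plated in 384-well plates at 5 concentrations spaced by 10-fold dilutions, and HEK293 cells overexpressing wild-type or mutant STAT3 and carrying a STAT3-dependent luciferase reporter were added at 100,000 cells/ml in 20 μl. After 72 hours at 37°C and 5% CO2, the plates were read on a PHERAstar FS for CellTox Green fluorescence (485/520 nm) and then CellTiter-Glo luminescence. A drug sensitivity score derived from dose-response curve area was calculated in Breeze from values normalised to negative and positive control wells.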"}, "[2]": {"system": "HEK293sieSTAT3(wt)", "assay": "drug sensitivity score (DSS), cytotoxicity CellTox Green (DSS (dimensionless)); higher = more cytotoxic; extreme values may be limits of the assay", "conditions": "72 h; STAT3 variant: wild type", "procedure,_shortened": "as §1"}, "[3]": {"system": "HEK293sieSTAT3(Y640F)", "assay": "drug sensitivity score (DSS), viability CellTiter-Glo (DSS (dimensionless)); higher = more growth inhibition; extreme values may be limits of the assay", "conditions": "72 h; STAT3 variant: Y640F (constitutively active)", "procedure,_shortened": "as §1"}, "[4]": {"system": "HEK293sieSTAT3(wt)", "assay": "drug sensitivity score (DSS), viability CellTiter-Glo (DSS (dimensionless)); higher = more growth inhibition; extreme values may be limits of the assay", "conditions": "72 h; STAT3 variant: wild type", "procedure,_shortened": "as §1"}},
  "data": [
    {"compound": "CC(C)(C)c1cc(NC(=O)Nc2ccc(-c3cn4c(n3)sc3cc(OCCN5CCOCC5)ccc34)cc2)no1", "note": "[Quizartinib] (top concentration tested 1000 nM)", "values": [
      {"measurement": "drug sensitivity score", "setting": "[1]", "value": 0},
      {"measurement": "drug sensitivity score", "setting": "[2]", "value": 1.05},
      {"measurement": "drug sensitivity score", "setting": "[3]", "value": 2.15},
      {"measurement": "drug sensitivity score", "setting": "[4]", "value": 2.01}
    ]},
    {"compound": "Cn1c(Nc2ccc(C(F)(F)F)cc2)nc2cc(Oc3ccnc(-c4ncc(C(F)(F)F)[nH]4)c3)ccc21", "note": "[RAF265] (top concentration tested 1000 nM)", "values": [
      {"measurement": "drug sensitivity score", "setting": "[1]", "value": 0},
      {"measurement": "drug sensitivity score", "setting": "[2]", "value": 0.14},
      {"measurement": "drug sensitivity score", "setting": "[3]", "value": 0},
      {"measurement": "drug sensitivity score", "setting": "[4]", "value": 0.25}
    ]},
    {"compound": "CNC(=O)c1ccc(N2C(=S)N(c3ccc(C#N)c(C(F)(F)F)c3)C(=O)C23CCC3)cc1F", "note": "[RD162] (top concentration tested 10000 nM)", "values": [
      {"measurement": "drug sensitivity score", "setting": "[1]", "value": 0},
      {"measurement": "drug sensitivity score", "setting": "[2]", "value": 0.2},
      {"measurement": "drug sensitivity score", "setting": "[3]", "value": 2.62},
      {"measurement": "drug sensitivity score", "setting": "[4]", "value": 1.68}
    ]},
    {"compound": "CCNC(=O)Nc1ccc(-c2nc3c(c(N4CCOC[C@@H]4C)n2)CCN(C2COC2)C3)cc1", "note": "[RG-7603] (top concentration tested 2500 nM)", "values": [
      {"measurement": "drug sensitivity score", "setting": "[1]", "value": 0},
      {"measurement": "drug sensitivity score", "setting": "[2]", "value": 0},
      {"measurement": "drug sensitivity score", "setting": "[3]", "value": 6.22},
      {"measurement": "drug sensitivity score", "setting": "[4]", "value": 8.47}
    ]},
    {"compound": "Nc1cc(F)ccc1NC(=O)/C=C/c1cnn(C/C=C/c2ccccc2)c1", "note": "[RGFP966] (top concentration tested 10000 nM)", "values": [
      {"measurement": "drug sensitivity score", "setting": "[1]", "value": 0},
      {"measurement": "drug sensitivity score", "setting": "[2]", "value": 0},
      {"measurement": "drug sensitivity score", "setting": "[3]", "value": 5.46},
      {"measurement": "drug sensitivity score", "setting": "[4]", "value": 6.28}
    ]},
    {"compound": "Cc1cnc(NC(=O)Nc2cc(Br)c(C)cc2OC[C@@H]2CNCCO2)cn1", "note": "[Rabusertib] (top concentration tested 1000 nM)", "values": [
      {"measurement": "drug sensitivity score", "setting": "[1]", "value": 0.03},
      {"measurement": "drug sensitivity score", "setting": "[2]", "value": 1.61},
      {"measurement": "drug sensitivity score", "setting": "[3]", "value": 5.38},
      {"measurement": "drug sensitivity score", "setting": "[4]", "value": 5.03}
    ]},
    {"compound": "C[C@@H]1C[C@H]2O[C@@H]2/C=C\\C=C\\C(=O)Cc2c(Cl)c(O)cc(O)c2C(=O)O1", "note": "[Radicicol] (top concentration tested 10000 nM)", "values": [
      {"measurement": "drug sensitivity score", "setting": "[1]", "value": 7.65},
      {"measurement": "drug sensitivity score", "setting": "[2]", "value": 14.4},
      {"measurement": "drug sensitivity score", "setting": "[3]", "value": 19.5},
      {"measurement": "drug sensitivity score", "setting": "[4]", "value": 25.1}
    ]},
    {"compound": "CC(C)(C)Cn1c(N)nc2ccc(-c3[nH]c(C(C)(C)C)nc3-c3ccc(F)cc3)nc21", "note": "[Ralimetinib] (top concentration tested 10000 nM)", "values": [
      {"measurement": "drug sensitivity score", "setting": "[1]", "value": 0.02},
      {"measurement": "drug sensitivity score", "setting": "[2]", "value": 0},
      {"measurement": "drug sensitivity score", "setting": "[3]", "value": 0.9},
      {"measurement": "drug sensitivity score", "setting": "[4]", "value": 0}
    ]},
    {"compound": "O=C(c1ccc(OCCN2CCCCC2)cc1)c1c(-c2ccc(O)cc2)sc2cc(O)ccc12", "note": "[Raloxifene] (top concentration tested 10000 nM)", "values": [
      {"measurement": "drug sensitivity score", "setting": "[1]", "value": 0},
      {"measurement": "drug sensitivity score", "setting": "[2]", "value": 6.26},
      {"measurement": "drug sensitivity score", "setting": "[3]", "value": 3.8},
      {"measurement": "drug sensitivity score", "setting": "[4]", "value": 5.05}
    ]},
    {"compound": "Cc1nc(=O)c2cc(CN(C)c3ccc(C(=O)N[C@@H](CCC(=O)O)C(=O)O)s3)ccc2[nH]1", "note": "[Raltitrexed] (top concentration tested 1000 nM)", "values": [
      {"measurement": "drug sensitivity score", "setting": "[1]", "value": 0},
      {"measurement": "drug sensitivity score", "setting": "[2]", "value": 2.49},
      {"measurement": "drug sensitivity score", "setting": "[3]", "value": 20.1},
      {"measurement": "drug sensitivity score", "setting": "[4]", "value": 15.1}
    ]},
    {"compound": "CNC(=O)c1cc(Oc2ccc(NC(=O)Nc3cc(C(C)(C)C)nn3-c3ccc4ncccc4c3)c(F)c2)ccn1", "note": "[Rebastinib] (top concentration tested 1000 nM)", "values": [
      {"measurement": "drug sensitivity score", "setting": "[1]", "value": 0},
      {"measurement": "drug sensitivity score", "setting": "[2]", "value": 1.16},
      {"measurement": "drug sensitivity score", "setting": "[3]", "value": 0},
      {"measurement": "drug sensitivity score", "setting": "[4]", "value": 0}
    ]},
    {"compound": "COc1cc(F)c(F)c(Nc2ccc(I)cc2F)c1NS(=O)(=O)C1(C[C@H](O)CO)CC1", "note": "[Refametinib] (top concentration tested 10000 nM)", "values": [
      {"measurement": "drug sensitivity score", "setting": "[1]", "value": 0},
      {"measurement": "drug sensitivity score", "setting": "[2]", "value": 0},
      {"measurement": "drug sensitivity score", "setting": "[3]", "value": 2.4},
      {"measurement": "drug sensitivity score", "setting": "[4]", "value": 1.58}
    ]},
    {"compound": "CNC(=O)c1cc(Oc2ccc(NC(=O)Nc3ccc(Cl)c(C(F)(F)F)c3)c(F)c2)ccn1", "note": "[Regorafenib] (top concentration tested 10000 nM)", "values": [
      {"measurement": "drug sensitivity score", "setting": "[1]", "value": 0},
      {"measurement": "drug sensitivity score", "setting": "[2]", "value": 0},
      {"measurement": "drug sensitivity score", "setting": "[3]", "value": 6.11},
      {"measurement": "drug sensitivity score", "setting": "[4]", "value": 6.43}
    ]},
    {"compound": "CN(C)Cc1ccc(S(=O)(=O)n2ccc(/C=C/C(=O)NO)c2)cc1", "note": "[Resminostat] (top concentration tested 10000 nM)", "values": [
      {"measurement": "drug sensitivity score", "setting": "[1]", "value": 5.95},
      {"measurement": "drug sensitivity score", "setting": "[2]", "value": 6.75},
      {"measurement": "drug sensitivity score", "setting": "[3]", "value": 11.5},
      {"measurement": "drug sensitivity score", "setting": "[4]", "value": 12.3}
    ]},
    {"compound": "CN(C)C(=O)c1cc2cnc(Nc3ccc(N4CCNCC4)cn3)nc2n1C1CCCC1", "note": "[Ribociclib] (top concentration tested 10000 nM)", "values": [
      {"measurement": "drug sensitivity score", "setting": "[1]", "value": 0.06},
      {"measurement": "drug sensitivity score", "setting": "[2]", "value": 2.66},
      {"measurement": "drug sensitivity score", "setting": "[3]", "value": 4.33},
      {"measurement": "drug sensitivity score", "setting": "[4]", "value": 5.65}
    ]},
    {"compound": "CO[C@H]1C[C@@H]2CC[C@@H](C)[C@@](O)(O2)C(=O)C(=O)N2CCCC[C@H]2C(=O)O[C@H]([C@H](C)C[C@@H]2CC[C@@H](OP(C)(C)=O)[C@H](OC)C2)CC(=O)[C@H](C)/C=C(\\C)[C@@H](O)[C@@H](OC)C(=O)[C@H](C)C[C@H](C)/C=C/C=C/C=C/1C", "note": "[Ridaforolimus] (top concentration tested 100 nM)", "values": [
      {"measurement": "drug sensitivity score", "setting": "[1]", "value": 0},
      {"measurement": "drug sensitivity score", "setting": "[2]", "value": 0},
      {"measurement": "drug sensitivity score", "setting": "[3]", "value": 8.94},
      {"measurement": "drug sensitivity score", "setting": "[4]", "value": 13.9}
    ]},
    {"compound": "COc1cc(OC)c(/C=C/S(=O)(=O)Cc2ccc(OC)c(NCC(=O)O)c2)c(OC)c1", "note": "[Rigosertib] (top concentration tested 10000 nM)", "values": [
      {"measurement": "drug sensitivity score", "setting": "[1]", "value": 6.71},
      {"measurement": "drug sensitivity score", "setting": "[2]", "value": 18.7},
      {"measurement": "drug sensitivity score", "setting": "[3]", "value": 21.8},
      {"measurement": "drug sensitivity score", "setting": "[4]", "value": 21.9}
    ]},
    {"compound": "C=CC(=O)Nc1cccc(Nc2nc(Nc3ccc(N4CCN(C(C)=O)CC4)cc3OC)ncc2C(F)(F)F)c1", "note": "[Rociletinib] (top concentration tested 10000 nM)", "values": [
      {"measurement": "drug sensitivity score", "setting": "[1]", "value": 0.23},
      {"measurement": "drug sensitivity score", "setting": "[2]", "value": 4.1},
      {"measurement": "drug sensitivity score", "setting": "[3]", "value": 8.18},
      {"measurement": "drug sensitivity score", "setting": "[4]", "value": 7.99}
    ]},
    {"compound": "O=C(CCCCCCNC(=O)c1cnc(N(c2ccccc2)c2ccccc2)nc1)NO", "note": "[Rocilinostat] (top concentration tested 10000 nM)", "values": [
      {"measurement": "drug sensitivity score", "setting": "[1]", "value": 1.02},
      {"measurement": "drug sensitivity score", "setting": "[2]", "value": 0.53},
      {"measurement": "drug sensitivity score", "setting": "[3]", "value": 8},
      {"measurement": "drug sensitivity score", "setting": "[4]", "value": 6.92}
    ]},
    {"compound": "CS(=O)(=O)c1ccc(C2=C(c3ccccc3)C(=O)OC2)cc1", "note": "[Rofecoxib] (top concentration tested 10000 nM)", "values": [
      {"measurement": "drug sensitivity score", "setting": "[1]", "value": 0},
      {"measurement": "drug sensitivity score", "setting": "[2]", "value": 0},
      {"measurement": "drug sensitivity score", "setting": "[3]", "value": 0},
      {"measurement": "drug sensitivity score", "setting": "[4]", "value": 0}
    ]},
    {"compound": "C/C=C1\\NC(=O)[C@H]2CSSCC/C=C/[C@H](CC(=O)N[C@H](C(C)C)C(=O)N2)OC(=O)[C@H](C(C)C)NC1=O", "note": "[Romidepsin] (top concentration tested 1000 nM)", "values": [
      {"measurement": "drug sensitivity score", "setting": "[1]", "value": 23.6},
      {"measurement": "drug sensitivity score", "setting": "[2]", "value": 29.9},
      {"measurement": "drug sensitivity score", "setting": "[3]", "value": 32.4},
      {"measurement": "drug sensitivity score", "setting": "[4]", "value": 29.5}
    ]}
  ]
}
